Entries after “also recorded” stand apart in the source; their conditions may differ. Read-outs that look alike come from different tables or passages of the source.
What was measured:
SNU398 cells [1] = assay: RT-qPCR of Raldh1, Raldh2 and Raldh3 transcripts in SNU398 cells; format: cell-based, human; details: SNU398, 24 hours
Method: FIG. 21A: Transcript levels (RT-qPCR) of Raldh1, Raldh2 and Raldh3 in SNU398 cells treated with different concentrations of C86 or C91 for 24 hours. FIG. 21B: Homology modeling identifies differences in amino acid residues between human and murine RALDH1 at sites predicted to bind RALDH1-INH. FIG. 21C: SNU398 cells were treated with various concentrations of C86 or C91 for 24 hours. Cell viability was measured by flow cytometry (FCM) with 7-AAD staining (Y-axis indicates percentage of 7-AAD negative cells).
Total RNA from mouse tissue samples and in vitro cultured cells was isolated using GenElute Mammalian Total RNA Miniprep Kit (Sigma) following the manufacturer's protocol. Total RNA from human FFPE samples was isolated by using Quick-RNA FFPE Miniprep Kit (Zymo Research) using the manufacturer's protocol. 1000 ng of RNA was used for reverse transcription using High Capacity RNA to cDNA Kit (Life Technologies). The cDNA product was 10× diluted. 2.5 μL of this cDNA was used for qPCR for each sample. Three or more replicates were used for each reaction. […] Expression fold was calculated as 2^−(CT target gene−CT housekeeping gene). Quantitative PCRs were run on a Viia 7 real time PCR system (ThermoFisher). The following target and housekeeping genes were measured using the commercially available TaqMan probes (ThermoFisher): […]

[2] = mouse, in vivo
Method: Male CD1 or C57BL/6J mice between 6 and 8 weeks old and weighing approximately 20 to 30 grams were dosed with compound 86, compound 91, and compound 99 at 2 mg/kg (IV), 10 mg/kg (PO), and 10 or 30 mg/kg (IP). The compounds were formulated using a 20% hydroxypropyl-beta-cyclodextrin (HPbCD) solution in saline, was made on the day of dosing or directly prior to dosing. Each treatment group consisted of three mice, and plasma was collected at 5 minutes, 15 minutes, 30 minutes, 1 hour, 2 hours, 4 hours, 8 hours, 12 hours, and 24 hours post-dose for IV administration and at 15 minutes, 30 minutes, 1 hour, 2 hours, 4 hours, 8 hours, 12 hours, and 24 hours post-dose for PO administration. Approximately 0.025 mL of blood was collected from the dorsal metatarsal vein at each time point. […] Plasma samples were then stored in polypropylene tubes, quickly frozen, and kept at −75° C. until analyzed by LC/MS/MS. The following pharmacokinetic parameters were measured: Terminal half-life (T½), Concentration at immediately after injection (C0), Maximum concentration (Cmax), Time to reach max concentration (Tmax), Clearance (CL), Volume of distribution (Vd), Area under the curve (AUClast), and bioavailability (% F). Animals were also monitored during the in-life phase by once daily cage side observations; any adverse clinical signs were noted as part of the PK report.

SNU398 human HCC cells = assay: AldeRed (Aldefluor) assay in SNU398 cells; format: cell-based
Method: (§1) The AldeRed assay (EMD Millipore) was performed according to manufacturer's instructions to identify cells with ALDH activity. In brief, single-cell suspensions of Huh7, Huh1, SNU449, SNU398, HEP3B, PLC, Hepa 1-6, Hep55, and AL458A cultured cells or single-cell suspension generated from enzymatic digestion of tumors generated from transplantation of these cells in mice (as indicated in figure legends) were incubated with a fluorescent and non-toxic ALDH substrate (AldeRed 588-A); the fluorescent product accumulates in cells proportional to their ALDH activity. The amount of fluorescence produced is measured by flow cytometry. The ALDH inhibitor diethylaminobenzaldehyde (DEAB, provided with the AldeRed assay kit) was used as a negative control for background fluorescence assessment.
The Aldefluor assay has been used to identify and isolate cells with high ALDH activities. This assay is based on the principle that ALDH can convert the ALDH-substrate, Bodipy-aminoacetaldehyde (BAAA) into Bodipy-aminoacetate (BAA) which is retained inside the cells. BAAA is uncharged and can diffuse freely into intact viable cells, however BAA cannot cross the membrane due to its net negative charge, which makes remain in the cells and the assay buffer prevents efflux of the BAA from the cells. Therefore, the amount of BAA fluorescence in cells is proportional to ALDH activity and can be measured using a flow cytometer. A specific inhibitor of ALDH, diethylaminobenzaldehyde (DEAB), is used for background fluorescence control.

[3] = system: murine HCC cell line (Hepa1-6); assay: AldeRed assay in Hepa1-6 cells; format: cell-based, mouse
Method: Cultures of tumor cells or primary monocyte-derived cells were treated with C86, C91, C99, BMS 493 (Tocris, 3509) or Win 18446 (Tocris, 4736) at a time and concentration indicated in corresponding figure legends.
as §1

[4] = Pharmacokinetics IV and PO in CD-1 mice, plasma; format: in vivo; details: mouse plasma
From the text: The PK studies were done at NIH or a commercial CRO—Pharmacon using their in-house standard protocol. […] For C99, IV and PO, performed at NIH using CD-1 mice; formulation: 20% HPbCD in saline.

SNU398 cells [5] = assay: In vitro proliferation and viability of human HCC cell lines; format: cell-based
Method: FIG. 20D: LC-MS for ATRA on Hepa1-6 (mouse HCC cell line) or SNU398 (human HCC cell line). […] Two independent experiments were performed with at least three replicates per experimental group. Unpaired t test, two-tailed. *, P<0.05; **, P<0.01; ***, P<0.001. […] Cell proliferation was measured by counting live cell numbers at each time point. […] Cell proliferation was measured by counting live cell numbers at each time point.
Cell viability was measured by flow cytometry (FCM) with 7-AAD staining (Y-axis indicates percentage of 7-AAD negative cells).
1×10^4~2×10^5 of Huh7, Huh1, Hepa 1-6, and Hep55 tumor cells were plated in triplicate in 48-well plates or 6-well plates. Viable cell numbers were counted every day for three to four days.

Hepa 1-6 cells = assay: In vitro proliferation and viability of Hepa 1-6 cells; format: cell-based, mouse; details: murine HCC cell line Hepa 1-6
Hepa 1-6 tumors = Hepa 1-6 tumors in mice; format: in vivo, mouse
Method: FIGS. 28A-28G: C99 inhibits murine RALDH1 and suppresses murine HCC growth. FIG. 28A: AldeRed assay was performed on Hepa1-6 (murine HCC, left graph) and SNU398 (human HCC, right graph) cells with or without different concentration of C99 (x-axis). Shown is the percentage of AldeRed-positive cells (y-axis) after 24 hours exposure to C99. Murine RALDH1 is sensitive to C99. FIG. 28B: Hepa1-6 cells were treated with different concentrations of C99 in vitro and the number of viable cells were counted at different time points. […] FIG. 28C: C57BL6/J mice were implanted subcutaneously with Hepa1-6 cells and the tumor-bearing mice. To prevent spontaneous rejection of this cell line, mice were treated with anti-CD3. Once the tumors reached around 50 mm^3 size, mice were treated with C86 or C99 (i.p., 20 mg/kg) every day. […] C99, but not C86, suppresses murine HCC growth. Two independent experiments were performed with at least three replicates per experimental group. Unpaired t test, two-tailed. FIG. 28D: Tumors in (FIG. 28C) were harvested at endpoint, single-cell suspension generated, and AldeRed assay was performed along with surface staining with immune cell markers. Shown is the percentage of AldeRed-positive cells in nonleukocytes (CD45 negative, mostly tumor cells) under the different treatment conditions. Two independent experiments were performed with at least three replicates per experimental group. Unpaired t test, two-tailed. FIG. 28E: FCS base frequency of Macrophages (F4/80^+ cells) within CD45^+ leukocytes in tumor tissues from experiment outlined in (FIGS. 28C-28D). Two independent experiments were performed with at least three replicates per experimental group. Unpaired t test, two-tailed. FIG. 28F: Hepa1-6 tumor-bearing NU/J mice were treated with chlodronate liposomes (CloLipo) and/or C86/C99. CloLipo treatment suppresses tumor growth and renders tumors insensitive to C99. Two independent experiments were performed with at least three replicates per experimental group. Unpaired t test, two-tailed. FIG. 28G: The murine fibrosarcoma (FS) cell line was implanted subcutaneously into C57BL6/J mice. Mice were treated with 25 mg/kg of C-99 or vehicle everyday starting one day after tumor cell transplantation. *, P<0.05; **, P<0.01; ***, P<0.001; ns, not significant.
(§2) Cultured Huh7, Huh1, Hepa 1-6, Hep55, and FS (as indicated in figure legends) tumor cells were detached using 0.25% trypsin (Gibco, catalog #25200056), washed once with 1×PBS, and counted before implantation. 3~6×10^6 tumor cells were implanted subcutaneously (s.c.) into shaved flanks of recipient mice. Tumor dimensions were measured using a caliper starting at the day indicated in the accompanying figure legend and every two to three days thereafter; volume was calculated by using formula Length*Width^2/2. Tumor volumes of 2,000 mm^3, tumor length of 2 cm or tumor ulceration were used as endpoints for survival analyses.
To deplete T cells, 200 μg of mouse CD3-specific antibody (clone 17A2) was administered i.p. starting three days before tumor implantation and repeated every three to four days until mouse sacrifice. To deplete macrophages, 200 μL of clodronate liposome (CloLipo) or PBS-liposome (CtrlLipo) (both Liposoma) was administered i.p. starting three days prior to tumor implantation and repeated every four days until mouse sacrifice. Macrophage depletion efficacy in spleen and within tumors was confirmed by flow cytometry using canonical macrophage marker F4/80. […]

human RALDH isozymes = assay: IC50 on human RALDH isozymes (FIG. 29A); format: biochemical
[6] = system: murine fibrosarcoma (FS) cell line; assay: FS murine fibrosarcoma in C57BL6/J mice; format: in vivo, mouse; details: 25 mg/kg everyday
Method: FIGS. 28A-28G: C99 inhibits murine RALDH1 and suppresses murine HCC growth. FIG. 28A: AldeRed assay was performed on Hepa1-6 (murine HCC, left graph) and SNU398 (human HCC, right graph) cells with or without different concentration of C99 (x-axis). Shown is the percentage of AldeRed-positive cells (y-axis) after 24 hours exposure to C99. Murine RALDH1 is sensitive to C99. FIG. 28B: Hepa1-6 cells were treated with different concentrations of C99 in vitro and the number of viable cells were counted at different time points. […] FIG. 28C: C57BL6/J mice were implanted subcutaneously with Hepa1-6 cells and the tumor-bearing mice. To prevent spontaneous rejection of this cell line, mice were treated with anti-CD3. Once the tumors reached around 50 mm^3 size, mice were treated with C86 or C99 (i.p., 20 mg/kg) every day. […] C99, but not C86, suppresses murine HCC growth. Two independent experiments were performed with at least three replicates per experimental group. […]
as §2, with “3~6×10^6 tumor cells were implanted subcutaneously (s.c.) into shaved flanks of recipient mice.” left out, “Tumor volumes of 2,000 mm^3, tumor length of 2 cm or tumor ulceration were used as endpoints for survival analyses.” left out

[7] = intravenous administration, 2 mg/kg
[8] = male, CD-1, intravenous administration, 2 mg/kg
[9] = male, CD-1, oral administration, 10 mg/kg

**Q.** Which results are given for `CS(=O)(=O)N1CCN(C(=O)c2cnc3ccc(F)cc3c2-c2ccc(C3(C#N)CC3)cc2)CC1` [Compound C-91, 1-(4-(6-fluoro-3-(4-(methylsulfonyl)piperazine-1-carbonyl)quinolin-4-yl)phenyl)cyclopropane-1-carbonitrile]?
**A.** transcription of other RALDH isozymes (SNU398 cells [1]): did not lead to compensatory increases in transcription; signs of toxicity [2]: no signs of toxicity have been observed; RALDH activity, Aldered assay, in HCC cells (SNU398 human HCC cells; FIGS. 7-8): significantly reduced RALDH activity; RALDH activity as detected by Aldered (Aldefluor) assay (SNU398 human HCC cells; SNU398 cells in vitro, 100 nM, DMSO control): abrogated; AldeRed fluorescence ([3]; murine HCC cell line Hepa1-6, 24 hours): no change in AldeRed fluorescence; also recorded: failed to reduce AldeRed fluorescence; AUC0-∞ [4, 7]: 1830 ng·h/mL; Cmax [4, 7]: 1997 ng/mL; Vss [4, 7]: 1.4 L/kg; AUC0-∞ ([4]; oral administration, 10 mg/kg): 6980 ng·h/mL; Cmax ([4]; oral administration, 10 mg/kg): 1530 ng/mL; F ([4]; oral administration, 10 mg/kg): 76%; HCC cell growth in vitro (SNU398 cells [5]; SNU398, 1, 10, 100 and 1000 nM): did not inhibit HCC cell growth in vitro; cell death / cell viability in human HCC cell lines (SNU398 cells [5]; live cell counts over 3 days, 7-AAD staining 24 hours): not due to increased cell death or reduced cell viability

**Q.** With `C=CS(=O)(=O)N1CCN(c2c(C(=O)N3CCN(S(C)(=O)=O)CC3)cnc3ccc(F)cc23)CC1` [Compound C-99, (6-fluoro-4-(4-(vinylsulfonyl)piperazin-1-yl)quinolin-3-yl)(4-(methylsulfonyl)piperazin-1-yl)methanone] as the compound, how does the “proliferation or viability in vitro” value (Hepa 1-6 cells) read?
**A.** did not reduce proliferation or viability

**Q.** What about the “sensitivity of TAM-depleted tumors to treatment” value (Hepa 1-6 tumors; Hepa 1-6, CloLipo-treated) of the same compound?
**A.** insensitive to C99 treatment

**Q.** And the “tumor growth in vivo” value (Hepa 1-6 tumors; Hepa 1-6 in C57BL6/J mice treated with anti-CD3, i.p., 20 mg/kg every day)?
**A.** significantly suppressed tumor growth in vivo

**Q.** What about the “frequency of TAMs within the TME” value (Hepa 1-6 tumors; Hepa 1-6 tumors at endpoint) of the same compound?
**A.** reduced

**Q.** And the “AldeRed activity in tumor cells” value (Hepa 1-6 tumors; Hepa 1-6 tumors at endpoint, CD45 negative cells)?
**A.** reduced AldeRed activity in tumor cells

**Q.** And the “IC50 relative to C86” value (human RALDH isozymes)?
**A.** significantly greater than that of C86

**Q.** And the “concentration range suppressing RALDH1 activity” value (SNU398 human HCC cells; AldeRed assay, FIG. 28A and FIG. 20A)?
**A.** micromolar

**Q.** And the “RALDH1 activity (AldeRed-positive cells)” value (SNU398 human HCC cells; human HCC cell line, 24 hours exposure)?
**A.** suppressed RALDH1 activity

**Q.** And the fibrosarcoma growth [6]?
**A.** did not suppress fibrosarcoma growth

**Q.** And the “RALDH1 activity (AldeRed-positive cells)” value ([3]; murine HCC cell line, 24 hours exposure)?
**A.** suppressed RALDH1 activity

**Q.** And the AUC(0-inf) [4, 8]?
**A.** 37 ng·h/mL

**Q.** What about the half-life [4, 8] of the same compound?
**A.** 6 min

**Q.** What about the clearance ([4]; male, CD-1, intravenous administration, 2 mg/kg, read-out: CLp) of the same compound?
**A.** 887 mL/min/kg

**Q.** And the Cmax ([4]; male, CD-1, intravenous administration, 2 mg/kg, read-out: Cmax)?
**A.** 117 ng/mL

**Q.** What about the Vd ([4]; male, CD-1, intravenous administration, 2 mg/kg, read-out: Vss) of the same compound?
**A.** 2.7 L/kg

**Q.** What about the AUC(0-inf) [4, 9] of the same compound?
**A.** 11 ng·h/mL

**Q.** And the half-life [4, 9]?
**A.** 30 min

**Q.** And the Cmax ([4]; male, CD-1, oral administration, 10 mg/kg, read-out: Cmax)?
**A.** 16 ng/mL

**Q.** And the F ([4]; oral administration, 10 mg/kg)?
**A.** 6.3%
